Data: patent EP2647626A1, “1-Aza-spiro[4.5]dec-3-ene and 1,8-diaza-spiro[4.5]dec-3-ene derivatives as pesticides” (Syngenta Participations AG, priority 2012, dated 2013)
Read-outs that look alike come from different tables or passages of the source.

Experiments:
Format in all cases: in vivo
[1] = tested on: Myzus persicae (green peach aphid); experiment: Activity against Myzus persicae, mixed population, feeding/residual contact activity on sprayed cabbage plants; details: 144 h, read-out: activity against Myzus persicae
Procedure: (§1) (mixed population, feeding/residual contact activity, plant damage evaluation)
(§2) Cabbage plants infested with a mixed population of Myzus persicae were treated with diluted test solutions of the compounds in a spray chamber. 6 days after treatment, samples were checked for mortality and for plant damage (phytotoxicity), visual assessment being made using a 0-100% rating scale (100% = total damage to plant; 0% = no damage to plant).

[2] = tested on: Myzus persicae (green peach aphid); experiment: Activity against Myzus persicae, mixed population, systemic/feeding activity, curative (pea seedling roots in test solution); details: 144 h, read-out: activity
From the text: Example B2: Activity against Myzus persicae (green peach aphid) (mixed population, systemic/feeding activity, curative)
Roots of pea seedlings, infested with an aphid population of mixed ages, were placed directly in the test solutions. 6 days after introduction, samples were checked for mortality and special effects on the plant.

[3] = tested on: Tetranychus urticae (two-spotted spider mite); experiment: Activity against Tetranychus urticae, mixed population, feeding/residual contact activity, preventive (bean leaf discs); details: foliar, 192 h, concentration of 400ppm, egg, larval and adult mortality checked 8 days later, bean leaf discs sprayed
From the text: Example B4: Activity against Tetranychus urticae (two-spotted spider mite)
(mixed population, feeding/residual contact activity, preventive)
Bean leaf discs on agar in 24-well microtiter plates were sprayed with test solutions. After drying, the leaf discs were infested with mite populations of mixed ages. 8 days later, discs were checked for egg mortality, larval mortality, and adult mortality.

cabbage plants = experiment: Plant damage evaluation (phytotoxicity) on sprayed cabbage plants, visual 0-100% rating scale; details: concentration of 200ppm; 6 days after treatment; 100% = total damage to plant, 0% = no damage to plant
Procedure: Example B5: Activity against Myzus persicae (green peach aphid)
as §1, §2

[4] = tested on: Myzus persicae (green peach aphid); experiment: Activity against Myzus persicae, mixed population, feeding/residual contact activity, preventive (sunflower leaf discs); details: foliar, 144 h, read-out: activity
Procedure: Example B1: Activity against Myzus persicae (green peach aphid) (mixed population, feeding/residual contact activity, preventive)
Sunflower leaf discs were placed on agar in a 24-well microtiter plate and sprayed with test solutions. After drying, the leaf discs were infested with an aphid population of mixed ages. After an incubation period of 6 days, samples were checked for mortality and special effects (e.g. phytotoxicity).

[5] = concentration of 200ppm, mortality 6 days after treatment, cabbage plants, spray chamber
[6] = concentration of 400ppm, mortality checked 6 days after introduction, roots of pea seedlings in test solution
[7] = concentration of 400ppm, mortality checked after 6 days, sunflower leaf discs sprayed

Compound	mortality at 200 ppm [1, 5] [%]	mortality at 400 ppm [2, 6] [%]	mortality at 400 ppm [3] [%]	mortality at 200 ppm [1] [%]	damage to cabbage plants (cabbage plants) [%]	mortality at 400 ppm [4, 7] [%]	mortality at 400 ppm [4] [%]	mortality at 400 ppm [2] [%]
CO[C@H]1CC[C@@]2(CC1)C(=O)C(c1cc(C)ccc1C)C(=O)N2c1ccccc1 (relative stereo) [P2.1, cis-3-(2,5-dimethyl-phenyl)-8-methoxy-1-phenyl-1-aza-spiro[4.5]decane-2,4-dione]	≥ 80	–	–	–	–	–	–	–
CCOC(=O)OC1=C(c2cc(C)ccc2C)C(=O)N(c2ccccc2)[C@]12CC[C@@H](OC)CC2 [P1.1, carbonic acid cis-3-(2,5-dimethyl-phenyl)-8-methoxy-2-oxo-1-phenyl-1-aza-spiro[4.5]dec-3-en-4-yl ester ethyl ester]	≥ 80	–	–	–	–	–	–	–
CCOC(=O)OC1=C(c2cc(C)ccc2C)C(=O)N(c2ccccc2)C12CCN(OC)CC2 [P1.2]	–	> 80	> 80	≥ 80	≤ 10	–	–	–
CCOC(=O)OC1=C(c2c(C)cc(Br)cc2C)C(=O)N(c2ccccc2)C12CCN(OC)CC2 [P1.3]	–	> 80	> 80	≥ 80	≤ 10	> 80	–	–
CCOC(=O)OC1=C(c2c(C)cc(C)cc2C)C(=O)N(c2ccccc2)C12CCN(OC)CC2 [P1.4]	–	> 80	–	–	–	–	–	–
CCOC(=O)OC1=C(c2c(C)cc(Cl)cc2C)C(=O)N(c2ccccc2)C12CCN(OC)CC2 [P1.5]	–	> 80	–	≥ 80	≤ 10	> 80	–	–
CON1CCC2(CC1)C(=O)C(c1cc(C)ccc1C)C(=O)N2c1ccccc1 (centres unmarked) [P2.2]	–	–	–	≥ 80	≤ 10	–	–	–
CON1CCC2(CC1)C(=O)C(c1c(C)cc(Br)cc1C)C(=O)N2c1ccccc1 (centres unmarked) [P2.3]	–	> 80	> 80	≥ 80	≤ 10	> 80	–	–
CON1CCC2(CC1)C(=O)C(c1c(C)cc(C)cc1C)C(=O)N2c1ccccc1 (centres unmarked) [P2.4]	–	> 80	> 80	≥ 80	≤ 10	> 80	–	–
CON1CCC2(CC1)C(=O)C(c1c(C)cc(Cl)cc1C)C(=O)N2c1ccccc1 (centres unmarked) [P2.5, 3-(4-chloro-2,6-dimethyl-phenyl)-8-methoxy-1-phenyl-1,8-diaza-spiro[4.5]decane-2,4-dione]	–	–	–	≥ 80	≤ 10	–	> 80	> 80
